Values of other authors as cited in US20020136782A1, “Composition patent for solid-dosage form of weight loss product” (priority 2001, published 2002).

Conditions: non-toxic dose; equivalent doses

| Substance | chromosome damage |
| --- | --- |
| Chromium picolinate | significant chromosome damage |
| chromium polynicotinate | did not cause chromosome damage |
